The assay concerns MTT (mouse pheochromocytoma). Description: IC50 of cell viability (ATP content). As to conditions: (24 or 48 h). In a few lines: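 Library compounds in DMSO (23 nl by pintool, 8 concentrations, final 0.5 nM to 46 µM) were applied for 24 or 48 hrs to MTT mouse pheochromocytoma cells that had been cultured overnight at 37°C, 5% CO2 in white 1536-well plates. Cell viability was measured by CellTiter-Glo ATP luminescence, read after 15 minutes, with positive-control wells set at 100% and DMSO wells at 0%. A four-parameter logistic fit of the normalised signals yielded the IC50.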

Counter-ions that a name gives are not always drawn.

Data on 67 compounds can be found in the supplement of paper PMC3974653.

As to `C[C@]12CC[C@H]3c4ccc(O)cc4CC[C@@H]3[C@H]1CC[C@@H]2OC(=O)CCC1CCCC1` [Depoestradiol], the “IC50 of cell viability” value is greater than 46 µM.

Turning to `CCC(C)C1NC(=O)C(CCNCS(=O)(=O)[O-])NC(=O)C(NC(=O)C(CCNCS(=O)(=O)[O-])NC(=O)C(NC(=O)C(CCNCS(=O)(=O)[O-])NC(=O)CCCCC(C)C)C(C)O)CCNC(=O)C(C(C)O)NC(=O)C(CCNCS(=O)(=O)[O-])NC(=O)C(CCNCS(=O)(=O)[O-])NC(=O)C(C(C)CC)NC1=O.[Na+].[Na+].[Na+].[Na+].[Na+]` (configuration not stated) [COLISTIMETHATE SODIUM], the “IC50 of cell viability” value was greater than 46 µM.

For `CCCC(=O)O[C@@]1(CCC2[C@@H]3CCC/4=C/C(=O)CC[C@]4(C)C3C(O)C[C@@]12C)C(=O)CO` (some centres not stated) [HYDROCORTISONE BUTYRATE], the “IC50 of cell viability” value is greater than 46 µM.

On to `O=C1CCCCC1CN1CCCCC1` (configuration not stated) [Pimeclone], for which the “IC50 of cell viability” value is greater than 46 µM.

Regarding `CO[C@@]1(NC(=O)Cc2cccs2)C(=O)N2C(C(=O)O)=C(COC(N)=O)CS[C@@H]21` [Cefoxitin sodium salt], the “IC50 of cell viability” value is greater than 46 µM.

Consider `CO/N=C1\C[C@]2(C[C@@H]3C[C@H](CC=C(C)C[C@@H](C)C=CC=C4CO[C@@H]5[C@@H](O)C(C)=C[C@@H](C(=O)O3)[C@]45O)O2)O[C@@H](/C(C)=C/C(C)C)[C@H]1C` [Moxidectin], for which the “IC50 of cell viability” value is greater than 46 µM.

`O=C(O)C1/C(=C/CO)OC2CC(=O)N21.[Li]` (configuration not stated) [CLAVULANATE LITHIUM]: the “IC50 of cell viability” value was greater than 46 µM.

Regarding `NC(Cc1ccc(Cl)cc1)C(=O)O` (configuration not stated) [p-Chlorophenylalanine], the “IC50 of cell viability” value was greater than 46 µM.

`O=C(Cn1ccnc1[N+](=O)[O-])NCc1ccccc1` [Benznidazol]: the “IC50 of cell viability” value was greater than 46 µM.

`FC(F)(F)C(F)(F)C(F)(F)C(F)(F)C(F)(F)C(F)(F)C(F)(F)C(F)(F)Br` [Perflubron]: the “IC50 of cell viability” value is greater than 46 µM.

`O=C1/C(=C2/Nc3ccc(S(=O)(=O)[O-])cc3C2=O)Nc2ccc(S(=O)(=O)[O-])cc21` [Indigo carmine]: the “IC50 of cell viability” value was greater than 46 µM.

`NC(CCC(=O)N[C@@H](CS)C(=O)NCC(=O)O)C(=O)O` (some centres not stated) [GLUTATHIONE]: the “IC50 of cell viability” value was greater than 46 µM.

With `Cc1cn[nH]c1.Cl` [4-Methylpyrazole hydrochloride], the “IC50 of cell viability” value is greater than 46 µM.

In the case of `N[S+](=O)([O-])c1cc(Cl)c(Cl)c([S+](N)(=O)[O-])c1` [Dichlorphenamide], the “IC50 of cell viability” value was greater than 46 µM.

As for `O=C1N\C=N/C2=C1[NH]C=N2` [HYPOXANTHINE], the “IC50 of cell viability” value is greater than 46 µM.

For `c1ccc2sc(SN3CCOCC3)nc2c1` [MORPHOLINYLMERCAPTOBENZOTHIAZOLE], the “IC50 of cell viability” value was greater than 46 µM.

As to `CCCCNc1c(C(=O)OCC)c(C)nc2c1cnn2CC` [Tracazolate hydrochloride], the “IC50 of cell viability” value is greater than 46 µM.

Consider `CC(C)(C)NCC(O)c1cc(Cl)c(N)c(Cl)c1` (configuration not stated) [CLENBUTEROL], for which the “IC50 of cell viability” value is greater than 46 µM.

With `NC(CS)C(=O)O` (configuration not stated) [CYSTEINE HYDROCHLORIDE], the “IC50 of cell viability” value is greater than 46 µM.

Consider `CCOC(=O)[C@H](CCc1ccccc1)N[C@@H](C)C(=O)N1[C@@H](C(=O)O)C[C@H]2CCC[C@@H]21` [Ramipril], for which the “IC50 of cell viability” value was greater than 46 µM.

As for `N[S+](=O)([O-])c1cc2c(cc1Cl)N[C@@H](C(Cl)Cl)N[S+]2(=O)[O-]` [Trichlormethiazide], the “IC50 of cell viability” value was greater than 46 µM.

`OCCN1CC(O)C(O)C(O)C1CO` (configuration not stated) [MIGLITOL]: the “IC50 of cell viability” value was greater than 46 µM.

On to `Oc1cc(O)c(Cl)cn1` [GIMERACIL], for which the “IC50 of cell viability” value is greater than 46 µM.

For `CCCCCCCC/C=C\CCCCCCCCN` [DECTAFLURUM], the “IC50 of cell viability” value was greater than 46 µM.

Consider `CCN(Cc1ccncc1)C(=O)C(CO)c1ccccc1` (configuration not stated) [TROPICAMIDE], for which the “IC50 of cell viability” value is greater than 46 µM.

As for `O=C(O)c1ccccc1S` [Thiosalicylic acid], the “IC50 of cell viability” value was greater than 46 µM.

`CC(C)=CC1C(C(=O)OCN2C(=O)\C3=C(\CCCC3)C2=O)C1(C)C` (configuration not stated) [TETRAMETHRINUM]: the “IC50 of cell viability” value was greater than 46 µM.

With `OCC1O[C@H](O[C@H]2C(O)C(O)C(O)O[C@@H]2CO)C(O)C(O)C1O` (some centres not stated) [CELLOBIOSE (D[+])], the “IC50 of cell viability” value was greater than 46 µM.

In the case of `c1ccc2c(c1)Sc1ccccc1N2C[C@H]1CN2CCC1CC2` [Levomequitazine], the “IC50 of cell viability” value was greater than 46 µM.

For the compound `C[C@@H]1CCC[C@H](C)N1NC(=O)c1ccc(Cl)c([S+](N)(=O)[O-])c1` [Clopamide], the “IC50 of cell viability” value was greater than 46 µM.

Turning to `COC1CC(O[C@H]2/C(C)=C/CC3CC(C[C@]4(CCC(C)C(C5CCCCC5)O4)O3)OC(=O)[C@H]3C=C(C)/C(=N/O)C4OC/C(=C\C=C\[C@@H]2C)[C@@]43O)OC(C)C1O` (some centres not stated) [SELAMECTIN], the “IC50 of cell viability” value is greater than 46 µM.

On to `CC(=O)N[S+](=O)([O-])c1ccc(N)cc1` [Sulfacetamide], for which the “IC50 of cell viability” value is greater than 46 µM.

Regarding `CCN(CC)Cc1cc(Nc2ccnc3cc(Cl)ccc23)ccc1O.Cl.Cl.O.O` [Amodiaquin dihydrochloride dihydrate], the “IC50 of cell viability” value is greater than 46 µM.

Take `NC(=O)c1ccc([N+](=O)[O-])cc1Cl` [AKLOMIDE]: the “IC50 of cell viability” value is greater than 46 µM.

With `Cl.Cn1ccc2cc3c(cc21)CCN3C(=O)Nc1cccnc1`, the “IC50 of cell viability” value was greater than 46 µM.

Turning to `CCCCCCCCCCCCCCCC(=O)OCC(COC(=O)CCCCCCCCCCCCCCC)OC(=O)CCCCCCCCCCCCCCC` [Tripalmitin], the “IC50 of cell viability” value was greater than 46 µM.

Turning to `CCOP(=S)(OCC)O/N=C(\C#N)c1ccccc1` [Phoxim], the “IC50 of cell viability” value was greater than 46 µM.

On to `O=C([O-])c1c(Cl)c(Cl)c(Cl)c(Cl)c1-c1c2cc(I)c(=O)c(I)c-2oc2c(I)c([O-])c(I)cc12` [Rose Bengal sodium], for which the “IC50 of cell viability” value is greater than 46 µM.

Regarding `CNCc1ccccc1.Cl` [N-METHYLBENZYLAMINE HYDROCHLORIDE], the “IC50 of cell viability” value was greater than 46 µM.

For the compound `N=C(N)NN.O=[S+]([O-])(O)O` [2-AMINOGUANIDINE HEMISULFATE], the “IC50 of cell viability” value was greater than 46 µM.

With `COc1ccccc1O` [o-methoxyphenol], the “IC50 of cell viability” value is greater than 46 µM.

Regarding `CN1C[C@@H]2C[C@H]1CN2c1cc2c(cc1F)c(=O)c(C(=O)O)cn2C1CC1` [Danofloxacin mesylate], the “IC50 of cell viability” value was greater than 46 µM.

As to `COc1ccccc1OCCNCC(O)COc1cccc2[nH]c3ccccc3c12.O=C(O)C(O)C(O)C(=O)O` (configuration not stated) [CARVEDILOL TARTRATE], the “IC50 of cell viability” value was greater than 46 µM.

Take `C[C@@H](C(=O)O)c1cccc(C(=O)c2ccccc2)c1` [Ketoprofen]: the “IC50 of cell viability” value is greater than 46 µM.

On to `CO/N=C(/C(=O)N[C@@H]1C(=O)N2C(C(=O)OC(C)OC(C)=O)=C(COC(N)=O)CS[C@H]12)c1ccco1` (some centres not stated) [CEFUROXIME AXETIL], for which the “IC50 of cell viability” value is greater than 46 µM.

In the case of `C/C=C/c1ccc(OC)cc1` [Anethole], the “IC50 of cell viability” value was greater than 46 µM.

In the case of `CCOC(C)OCC` [Acetal (Acetaldehyde diethyl acetal)], the “IC50 of cell viability” value was greater than 46 µM.

Consider `CCCN1CCC[C@H](c2cccc(O)c2)C1.Cl` [R(+)-3PPP hydrochloride], for which the “IC50 of cell viability” value is greater than 46 µM.

`O=C([O-])c1cc(/N=N/c2ccc(O)c(C(=O)[O-])c2)ccc1O` [OLSALAZINE SODIUM]: the “IC50 of cell viability” value is greater than 46 µM.

For `CC(C)NCC(O)c1ccc([N+](=O)[O-])cc1` (configuration not stated) [Nifenalol], the “IC50 of cell viability” value was greater than 46 µM.

As for `C=CC1=C(C)c2cc3[nH]c(cc4nc(cc5[nH]c(cc1n2)c(C)c5CCC(=O)[O-])C(CCC(=O)[O-])=C4C)c(C)c3C=C` [PROTOPORPHYRIN DISODIUM], the “IC50 of cell viability” value is greater than 46 µM.

Consider `CN(C)CCc1c[nH]c2cccc(O)c12` [Psilocin], for which the “IC50 of cell viability” value is greater than 46 µM.

On to `Nc1nc(N)c2nc(-c3ccccc3)c(N)nc2n1` [Triamterene], for which the “IC50 of cell viability” value was greater than 46 µM.

For the compound `C[S+](=O)([O-])Nc1cc2occ(NC=O)c(=O)c2cc1Oc1ccccc1` [T 614], the “IC50 of cell viability” value was greater than 46 µM.

On to `COc1ccc(Cc2cnc(N)nc2N)cc1OC` [DIAVERIDINUM], for which the “IC50 of cell viability” value is greater than 46 µM.

Turning to `CC(=O)CCC(=O)[O-]` [Calcium Levulinate], the “IC50 of cell viability” value was greater than 46 µM.

With `Cc1cc(-n2c(=O)[nH]c(=O)n(C)c2=O)ccc1Oc1ccc([S+](=O)([O-])C(F)(F)F)cc1` [Toltrazuril sulfone], the “IC50 of cell viability” value is greater than 46 µM.

As to `O=P1(N(CCCl)CCCl)NCCCO1` (configuration not stated) [Cyclophosphamide], the “IC50 of cell viability” value was greater than 46 µM.

On to `C[C@H]1CN(C2CCC(C#N)(c3ccc(F)cc3)CC2)CC[C@@]1(C(=O)O)c1ccccc1` (some centres not stated) [Levocabastine hydrochloride], for which the “IC50 of cell viability” value was greater than 46 µM.

As to `Clc1ccccc1CN1CCc2sccc2C1` [TICLOPIDINE], the “IC50 of cell viability” value was greater than 46 µM.

Consider `COC1=C(C=CC=C1)N2CCN(CCCN\C3=C\C(=O)N(C)C(=O)N3C)CC2` [URAPIDIL], for which the “IC50 of cell viability” value is greater than 46 µM.

As to `CNC(=N)NC(=O)Nc1c(C)cccc1C` [Lidamidine], the “IC50 of cell viability” value was greater than 46 µM.

Turning to `CC1(C)O[C@@H]2C[C@H]3[C@@H]4CC\C5=C\C(=O)\C=C/[C@]5(C)[C@H]4C(O)C[C@]3(C)[C@@]2(O1)C(=O)CO` (some centres not stated) [DESONIDE], the “IC50 of cell viability” value is greater than 46 µM.

Regarding `C=CC[N+]1(C)CCC23c4c5ccc(O)c4O[C@H]2C(=O)CC[C@@]3(O)C1C5` (some centres not stated) [NALOXONE METHIODIDE], the “IC50 of cell viability” value is greater than 46 µM.

`CC(C)(Oc1ccc(C2CCCc3ccccc32)cc1)C(=O)O` (configuration not stated) [Nafenopin]: the “IC50 of cell viability” value is greater than 46 µM.

Consider `CC1(C)OC2CO[C@]3(CO[S+](N)(=O)[O-])OC(C)(C)OC3C2O1` (some centres not stated) [TOPIRAMATE], for which the “IC50 of cell viability” value is greater than 46 µM.

With `CCCCC(CC)COC(=O)c1ccc(N(C)C)cc1` (configuration not stated) [Padimate O], the “IC50 of cell viability” value was greater than 46 µM.
